Data on two molecules can be found in US20090060944A1, “Enhancer Of The Effect Of Adrenocorticoid,Comprising Gum Arabic” (priority 2004, published 2009).

Common to all, as to type: in vivo, Male Wistar strain rats
For series [1], the system named is GM-induced nephritis rats. Description: Urine volume and urinary protein in GM-induced nephritis rats. Particulars: 8th day; for Effect on urinary protein (in words) / Effect on urine volume (in words): GM-induced nephritis rats; for Urinary protein / Urine volume: mean ± S.E. of 8 to 9 rats, 7.5% GA via drinking water. On the procedure: (§1) Gum Arabic was dissolved in water and filtered. The filtrate was spray-dried at about 120° C. to give the GA used in this experiment. GA was dissolved in tap water to prepare a 7.5% GA solution (7.5 g/100 mL, 7.5% GA). The 7.5% GA solution was used for oral administration in drinking water. Gentamicin sulfate (GM) was purchased from Sigma Chemical Co. and used as its saline solution. Prednisolone (PRD) was purchased from Sigma Chemical Co.
(§2) Male Wistar strain rats weighing 200-220 g (n=8 to 9 per group) were provided by SLC (Japan SLC, Hamamatsu). They were maintained in an air-conditioned room with lighting from 7 a.m. to 7 p.m. The room temperature (about 23° C.) and humidity (about 60%) were controlled automatically. They were kept for one week before treatment. Laboratory chows (Labo MR Stock, Nihon Nosan Kogyo K.K., Yokohama) and drinking water were freely available.
(§3) Nephritis was induced in rats by daily intraperitoneal injections of GM (80 mg/kg, i.p.) at 10:00 a.m. for 8 consecutive days. Animals injected with saline (1 mL/kg, i.p.) served as normal control. GA (7.5% GA) via the drinking water was administered for 8 consecutive days.
(§4) Rats were randomly assigned to the following eight groups of 8 to 9 rats each:
(§5) Group 1 (Normal): received daily intraperitoneal injections of saline (1 mL/kg, i.p.) for 8 days with tap water as drinking water.
(§6) Group 2 (7.5% GA): received daily saline (1 mL/kg, i.p.) and 7.5% GA via drinking water for 8 days.
(§7) Group 3 (GM): received daily GM (80 mg/kg, i.p.) for 8 days with tap water as drinking water.
(§8) Group 4 (GM+7.5% GA): received daily GM (80 mg/kg, i.p.) and 7.5% GA via the drinking water for 8 days.
(§9) Group 5 (GM+PRD/water): received daily PRD/water (2 mg/kg, p.o.) at 1 hr before daily GM (80 mg/kg, i.p.) administration for 8 days with tap water as drinking water.
(§10) Group 6 (GM+PRD/water+7.5% GA): received daily PRD/water (2 mg/kg, p.o.) at 1 hr before daily GM (80 mg/kg, i.p.) administration and 7.5% GA via the drinking water for 8 days.
(§11) 24 hr urine samples were obtained by keeping each animal in an individual metabolic cage for 24 hr at 10:00 a.m. on the 8th day. Rats were fasted for 1 day before urine collection. The collected urine was then centrifuged at 1,600×g for 10 min, and the supernatant was used for protein determination. Immediately after the urine collection, blood sample was taken from abdominal veins. The blood was centrifuged at 1,600×g for 10 min to give serum for the determination of blood urea nitrogen (BUN), serum creatinine and creatinine clearance.
(§12) The urinary protein excretion was determined by the method of Kingsbury et al (The Journal of Laboratory and Clinical Medicine, 11, 981-989, 1926) and expressed as mg/day. Briefly, a 3% solution of sulfosalicylic acid was added to a diluted urine sample, and placed at room temperature for 10 minutes. Then concentrations of urinary protein were determined from absorbance at 400 nm, and the urinary protein excretion (mg/day) was calculated from the volume of 24 hr urine. Commercial kits (Wako Pure Chemical Industries, Ltd.) were used to assay BUN, creatinine and creatinine clearance in serum with the following assay kits: Urea nitrogen B and Creatinine.
(§13) The experimental data were tested for statistical significant differences by means of Bonferroni/Dunn's method (Multiple Range Test).
(§14) PRD (2 mg/kg, p.o.) was orally administered in a form of suspension (0.2 mL/100 g weight of rat) in tap water (PRD/water) 1 hr before GM (80 mg/kg, i.p.) administration to rats of group 5 (GM+PRD/water) and group 6 (GM+PRD/water+7.5% GA). Group 5 received tap water as drinking water. Group 6 received 7.5% GA as drinking water.

Series [2] has as its system GM-induced nephritis rats. Put plainly: BUN, serum creatinine and creatinine clearance in GM-induced nephritis rats. Conditions: 8th day; for Effect on BUN level (in words): GM-induced nephritis rats; for BUN / Creatinine clearance / Serum creatinine: mean ± S.E. of 8 to 9 rats. How it is done: as §1, §2, §3, §4, §5, §6, §7, §8, §9, §10, §11, §12, §13, §14
Series [3] deals with GM-induced nephritis rats. Put plainly: Organ wet weight / body weight ratio in GM-induced nephritis rats. Particulars: for Adrenal gland weight / Kidney weight / Liver weight / Spleen weight / Thymus weight: 8th day, mean ± S.E. of 8 to 9 rats, GM 80 mg/kg i.p., 7.5% GA via drinking water. How it is done: as §1, §2, §3, §4, §5, §6, §7, §8, §9, §10
On the last day, the organs (adrenal gland, thymus, spleen, kidney and liver) were isolated from the rats, and the ratio of each organ wet weight (mg)/body weight (100 g) was determined.
as §13, §14

[4] abbreviates: Table 2, GM 80 mg/kg i.p. 8 days, 7.5% GA group got saline, no GM.
The mark [5] stands for this setting: Table 5, GM 80 mg/kg i.p., PRD 2 mg/kg p.o. 1 hr before GM.
The mark [6] stands for this setting: Table 1, GM 80 mg/kg i.p. 8 days, 7.5% GA via drinking water, 7.5% GA group got saline, no GM.
Where [7] appears, read: Table 4, GM 80 mg/kg i.p., PRD 2 mg/kg p.o. 1 hr before GM, 7.5% GA via drinking water.

Turning to `C[C@]12C=CC(=O)C=C1CC[C@@H]1[C@@H]2[C@@H](O)C[C@@]2(C)[C@H]1CC[C@]2(O)C(=O)CO` [PRD, Prednisolone], in series [1], the “Effect on urinary protein (in words)” value is recorded as “significantly inhibited the increment of urinary protein” and the “Effect on urine volume (in words)” value is reported as “did not show any effects on the increment of urine volume”. For the same molecule, in series [2], the “Effect on BUN level (in words)” value is on record as “significant protective effect on increments of BUN level”. Also, the “Effect on weight of thymus (in words)” value in series [3] (rat, in vivo) is “further decreased”.
As to Gentamicin sulfate [GM], in series [1], the “Effect on urinary protein (in words)” value was “increased” and the “Effect on urine volume (in words)” value is reported as “increased”. In series [1] (setting [4]), this molecule gave a Urinary protein of 26.7 ± 3.3 mg/24 hr and a Urine volume of 43.1 ± 4.3 mL/24 hr. Also, in series [1] (setting [5]), the Urinary protein was determined as 26.7 ± 3.3 mg/24 hr and the Urine volume is 43.1 ± 4.3 mL/24 hr. Also, the “Effect on BUN level (in words)” value in series [2] is given as “markedly increased”. Also, in series [2] (Table 1, GM 80 mg/kg i.p. 8 days, 7.5% GA via drinking water 8 days, 7.5% GA group got saline, no GM), the BUN was determined as 78.0 ± 11.9 mg/dL. In series [2] (setting [6]), this molecule returned a Creatinine clearance of 0.19 ± 0.10 mL/min and a Serum creatinine of 2.36 ± 0.41 mg/dL. In addition, in series [2] (setting [7]), the BUN is listed as 78.0 ± 11.9 mg/dL, the Creatinine clearance is 0.19 ± 0.10 mL/min and the Serum creatinine came to 2.36 ± 0.41 mg/dL. Also, the “Effect on kidney weight ratio (in words)” value in series [3] (GM-induced nephritis rats, last day) is listed as “slightly increased”. Further, the “Effect on weight of thymus (in words)” value in series [3] (GM-induced nephritis rats, last day, side-effect of PRD) is “tendency to decrease”. In series [3] (Table 3), the Adrenal gland weight is 23.5 ± 1.4 mg/100 g of body weight, the Kidney weight was 0.89 ± 0.03 g/100 g of body weight, the Liver weight is given as 2.95 ± 0.07 g/100 g of body weight and the Spleen weight is reported as 209.4 ± 10.8 mg/100 g of body weight. The Thymus weight in series [3] (Table 3) was 223.5 ± 15.2 mg/100 g of body weight. Further, in series [3] (Table 6, PRD 2 mg/kg p.o.), the Adrenal gland weight is on record as 23.5 ± 1.4 mg/100 g of body weight, the Kidney weight is reported as 0.89 ± 0.03 g/100 g of body weight, the Liver weight is given as 2.95 ± 0.07 g/100 g of body weight and the Spleen weight is 209.4 ± 10.8 mg/100 g of body weight. For the same molecule, the Thymus weight in series [3] (Table 6, PRD 2 mg/kg p.o.) is 223.5 ± 15.2 mg/100 g of body weight.
